Data published in ChEMBL document CHEMBL1136358, “Discovery and initial SAR of 2-amino-5-carboxamidothiazoles as inhibitors of the Src-family kinase p56(Lck)” (Bioorg Med Chem Lett, 2003).

Assays:
[1] = target: T1, Tyrosine-protein kinase Lck (Homo sapiens, UniProt P06239)
Description: Inhibitory activity human Lck(hLck) kinase

[2] = target: T2, Proto-oncogene tyrosine-protein kinase LCK (Mus musculus, UniProt P06240); experiment: In vitro inhibition of murine Lck kinase.
[3] = target: T1, Tyrosine-protein kinase Lck; experiment: Inhibition of human p56 Lck tyrosine kinase
[4] = target: T2, Proto-oncogene tyrosine-protein kinase LCK; experiment: Inhibition of mouse p56 Lck tyrosine kinase
[5] = target: T2, Proto-oncogene tyrosine-protein kinase LCK; experiment: Inhibition of mouse Lck(mLck) kinase at 50 uM (Inactive)
[6] = target: T1, Tyrosine-protein kinase Lck; experiment: Inhibition of human Lck(hLck) kinase at 50 uM (Inactive)
[7] = target: Cyclin-dependent kinase 2 (Homo sapiens, UniProt P24941); experiment: Inhibition of CDK2 kinase
[8] = target: Fibroblast growth factor receptor (Homo sapiens, UniProt P22607+P11362+P22455+P21802); experiment: Inhibition of FGF receptor; assay type: protein assay
Focal adhesion kinase 1 = Focal adhesion kinase 1 (Homo sapiens, UniProt Q05397); experiment: Inhibition of FAK kinase
[9] = target: Tyrosine-protein kinase Fyn (Homo sapiens, UniProt P06241); experiment: Inhibition of Fyn kinase
[10] = target: Receptor tyrosine-protein kinase erbB-2 (Homo sapiens, UniProt P04626); experiment: Inhibition of HER2 kinase
[11] = target: Tyrosine-protein kinase HCK (Homo sapiens, UniProt P08631); experiment: Inhibition of Hck kinase
[12] = target: T3, Tyrosine-protein kinase JAK3 (Homo sapiens, UniProt P52333); experiment: Inhibition of Jak3 kinase
T3 sequence (P52333 whole entry): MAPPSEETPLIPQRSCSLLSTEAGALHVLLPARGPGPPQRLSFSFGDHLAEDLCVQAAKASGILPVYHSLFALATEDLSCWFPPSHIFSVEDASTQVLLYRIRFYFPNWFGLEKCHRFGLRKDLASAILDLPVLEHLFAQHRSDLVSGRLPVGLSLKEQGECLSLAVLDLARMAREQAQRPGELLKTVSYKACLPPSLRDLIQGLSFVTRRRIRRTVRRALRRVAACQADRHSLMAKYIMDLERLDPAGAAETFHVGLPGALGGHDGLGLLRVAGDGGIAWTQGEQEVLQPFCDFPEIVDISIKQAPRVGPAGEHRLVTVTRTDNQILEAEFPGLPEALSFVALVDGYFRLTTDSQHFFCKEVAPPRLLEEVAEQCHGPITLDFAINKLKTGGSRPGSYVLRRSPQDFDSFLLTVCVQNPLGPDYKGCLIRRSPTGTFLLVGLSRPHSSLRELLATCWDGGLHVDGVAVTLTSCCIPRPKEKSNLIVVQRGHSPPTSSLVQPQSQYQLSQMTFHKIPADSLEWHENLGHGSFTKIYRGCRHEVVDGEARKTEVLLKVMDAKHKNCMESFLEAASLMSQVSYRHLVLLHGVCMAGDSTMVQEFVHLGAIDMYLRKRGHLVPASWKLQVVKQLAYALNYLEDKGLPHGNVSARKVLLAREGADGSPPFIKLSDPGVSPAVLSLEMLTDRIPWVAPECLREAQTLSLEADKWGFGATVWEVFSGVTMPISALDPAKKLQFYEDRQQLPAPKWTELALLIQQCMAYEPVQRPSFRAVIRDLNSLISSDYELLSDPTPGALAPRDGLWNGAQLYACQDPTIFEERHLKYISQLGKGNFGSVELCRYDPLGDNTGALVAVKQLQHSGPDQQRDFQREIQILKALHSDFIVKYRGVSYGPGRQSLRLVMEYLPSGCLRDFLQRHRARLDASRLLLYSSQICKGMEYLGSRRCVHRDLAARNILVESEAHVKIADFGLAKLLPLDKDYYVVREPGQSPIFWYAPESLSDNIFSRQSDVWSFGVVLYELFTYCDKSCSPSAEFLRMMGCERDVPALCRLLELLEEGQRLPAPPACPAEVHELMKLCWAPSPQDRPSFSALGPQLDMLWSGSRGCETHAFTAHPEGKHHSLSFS

[13] = target: Proto-oncogene tyrosine-protein kinase Src (Homo sapiens, UniProt P12931); experiment: Inhibition of Src kinase
[14] = target: T1, Tyrosine-protein kinase Lck; experiment: Inhibition of Lck kinase
[15] = target: T1, Tyrosine-protein kinase Lck; experiment: Inhibition of human Lck(hLck) kinase

T2 sequence (P06240 whole entry): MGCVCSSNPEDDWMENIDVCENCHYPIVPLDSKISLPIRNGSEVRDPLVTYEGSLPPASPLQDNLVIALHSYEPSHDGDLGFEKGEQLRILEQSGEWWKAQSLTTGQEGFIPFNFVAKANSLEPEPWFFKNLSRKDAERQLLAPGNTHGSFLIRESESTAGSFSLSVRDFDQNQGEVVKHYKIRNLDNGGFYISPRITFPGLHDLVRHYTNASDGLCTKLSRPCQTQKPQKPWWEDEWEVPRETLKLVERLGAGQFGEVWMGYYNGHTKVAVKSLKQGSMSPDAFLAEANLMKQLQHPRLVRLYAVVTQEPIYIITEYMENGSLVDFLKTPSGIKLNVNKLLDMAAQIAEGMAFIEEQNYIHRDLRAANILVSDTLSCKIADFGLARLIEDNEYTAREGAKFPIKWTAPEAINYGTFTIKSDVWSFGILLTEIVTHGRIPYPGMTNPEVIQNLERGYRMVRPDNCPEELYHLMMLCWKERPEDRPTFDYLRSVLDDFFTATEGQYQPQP
T1 sequence (P06239 whole entry): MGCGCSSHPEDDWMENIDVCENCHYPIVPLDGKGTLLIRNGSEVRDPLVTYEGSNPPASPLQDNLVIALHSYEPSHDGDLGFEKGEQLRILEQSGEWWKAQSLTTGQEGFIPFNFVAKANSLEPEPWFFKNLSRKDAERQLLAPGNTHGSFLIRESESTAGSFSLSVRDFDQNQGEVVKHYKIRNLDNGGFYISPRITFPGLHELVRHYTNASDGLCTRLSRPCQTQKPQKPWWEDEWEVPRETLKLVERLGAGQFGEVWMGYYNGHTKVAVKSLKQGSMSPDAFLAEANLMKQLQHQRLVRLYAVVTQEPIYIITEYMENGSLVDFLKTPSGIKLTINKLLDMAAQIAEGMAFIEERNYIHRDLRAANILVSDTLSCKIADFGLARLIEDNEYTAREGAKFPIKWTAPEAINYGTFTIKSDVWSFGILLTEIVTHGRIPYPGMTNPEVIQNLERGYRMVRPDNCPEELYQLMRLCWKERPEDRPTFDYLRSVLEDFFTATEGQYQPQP
Tyrosine-protein kinase HCK, sequence (P08631 whole entry): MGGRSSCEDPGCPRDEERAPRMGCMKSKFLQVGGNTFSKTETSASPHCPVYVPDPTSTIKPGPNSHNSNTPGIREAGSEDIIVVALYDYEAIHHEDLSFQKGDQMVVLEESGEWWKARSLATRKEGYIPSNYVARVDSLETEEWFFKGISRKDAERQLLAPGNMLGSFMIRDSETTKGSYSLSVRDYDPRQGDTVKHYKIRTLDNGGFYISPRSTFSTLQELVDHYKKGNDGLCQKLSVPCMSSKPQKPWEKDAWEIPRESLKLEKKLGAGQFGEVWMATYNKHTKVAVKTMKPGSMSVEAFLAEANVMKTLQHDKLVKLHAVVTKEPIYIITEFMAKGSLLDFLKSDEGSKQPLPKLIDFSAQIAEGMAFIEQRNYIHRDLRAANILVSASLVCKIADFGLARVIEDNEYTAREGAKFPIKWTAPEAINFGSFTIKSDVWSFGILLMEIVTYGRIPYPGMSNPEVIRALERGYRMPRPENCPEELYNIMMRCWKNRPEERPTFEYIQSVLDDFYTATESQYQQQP
Receptor tyrosine-protein kinase erbB-2, sequence (P04626 whole entry): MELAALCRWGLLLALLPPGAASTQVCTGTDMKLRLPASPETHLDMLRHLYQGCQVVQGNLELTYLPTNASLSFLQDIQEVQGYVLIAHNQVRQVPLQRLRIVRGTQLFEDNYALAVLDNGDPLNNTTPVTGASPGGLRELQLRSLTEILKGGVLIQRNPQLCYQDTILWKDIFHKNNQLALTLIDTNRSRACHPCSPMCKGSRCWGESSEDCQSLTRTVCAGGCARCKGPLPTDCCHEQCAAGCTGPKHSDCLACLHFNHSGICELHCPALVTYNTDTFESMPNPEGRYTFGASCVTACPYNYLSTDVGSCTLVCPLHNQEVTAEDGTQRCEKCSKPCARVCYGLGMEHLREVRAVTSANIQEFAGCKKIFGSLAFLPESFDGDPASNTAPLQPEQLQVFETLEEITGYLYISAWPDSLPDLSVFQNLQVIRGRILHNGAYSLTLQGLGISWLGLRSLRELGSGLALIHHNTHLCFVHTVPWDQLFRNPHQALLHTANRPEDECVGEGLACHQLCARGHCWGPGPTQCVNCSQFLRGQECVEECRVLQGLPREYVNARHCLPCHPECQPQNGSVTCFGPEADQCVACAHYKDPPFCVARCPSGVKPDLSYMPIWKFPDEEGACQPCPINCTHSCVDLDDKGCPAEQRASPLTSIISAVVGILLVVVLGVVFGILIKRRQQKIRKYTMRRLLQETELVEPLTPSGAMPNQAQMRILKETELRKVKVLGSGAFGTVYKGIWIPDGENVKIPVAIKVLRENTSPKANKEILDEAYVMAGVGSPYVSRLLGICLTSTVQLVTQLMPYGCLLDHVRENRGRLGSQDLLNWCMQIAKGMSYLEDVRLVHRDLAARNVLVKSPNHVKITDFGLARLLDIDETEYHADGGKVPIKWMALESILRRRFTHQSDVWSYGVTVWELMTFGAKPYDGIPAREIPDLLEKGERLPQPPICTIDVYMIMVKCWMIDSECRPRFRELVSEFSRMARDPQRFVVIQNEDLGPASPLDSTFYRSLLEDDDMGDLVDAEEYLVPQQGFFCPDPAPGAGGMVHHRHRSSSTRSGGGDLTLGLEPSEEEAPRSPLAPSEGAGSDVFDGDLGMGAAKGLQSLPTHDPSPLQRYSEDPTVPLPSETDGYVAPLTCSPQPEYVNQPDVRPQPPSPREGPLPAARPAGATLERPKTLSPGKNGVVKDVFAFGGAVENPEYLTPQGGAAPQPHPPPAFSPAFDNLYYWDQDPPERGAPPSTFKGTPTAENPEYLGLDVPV
Focal adhesion kinase 1, sequence (Q05397 whole entry): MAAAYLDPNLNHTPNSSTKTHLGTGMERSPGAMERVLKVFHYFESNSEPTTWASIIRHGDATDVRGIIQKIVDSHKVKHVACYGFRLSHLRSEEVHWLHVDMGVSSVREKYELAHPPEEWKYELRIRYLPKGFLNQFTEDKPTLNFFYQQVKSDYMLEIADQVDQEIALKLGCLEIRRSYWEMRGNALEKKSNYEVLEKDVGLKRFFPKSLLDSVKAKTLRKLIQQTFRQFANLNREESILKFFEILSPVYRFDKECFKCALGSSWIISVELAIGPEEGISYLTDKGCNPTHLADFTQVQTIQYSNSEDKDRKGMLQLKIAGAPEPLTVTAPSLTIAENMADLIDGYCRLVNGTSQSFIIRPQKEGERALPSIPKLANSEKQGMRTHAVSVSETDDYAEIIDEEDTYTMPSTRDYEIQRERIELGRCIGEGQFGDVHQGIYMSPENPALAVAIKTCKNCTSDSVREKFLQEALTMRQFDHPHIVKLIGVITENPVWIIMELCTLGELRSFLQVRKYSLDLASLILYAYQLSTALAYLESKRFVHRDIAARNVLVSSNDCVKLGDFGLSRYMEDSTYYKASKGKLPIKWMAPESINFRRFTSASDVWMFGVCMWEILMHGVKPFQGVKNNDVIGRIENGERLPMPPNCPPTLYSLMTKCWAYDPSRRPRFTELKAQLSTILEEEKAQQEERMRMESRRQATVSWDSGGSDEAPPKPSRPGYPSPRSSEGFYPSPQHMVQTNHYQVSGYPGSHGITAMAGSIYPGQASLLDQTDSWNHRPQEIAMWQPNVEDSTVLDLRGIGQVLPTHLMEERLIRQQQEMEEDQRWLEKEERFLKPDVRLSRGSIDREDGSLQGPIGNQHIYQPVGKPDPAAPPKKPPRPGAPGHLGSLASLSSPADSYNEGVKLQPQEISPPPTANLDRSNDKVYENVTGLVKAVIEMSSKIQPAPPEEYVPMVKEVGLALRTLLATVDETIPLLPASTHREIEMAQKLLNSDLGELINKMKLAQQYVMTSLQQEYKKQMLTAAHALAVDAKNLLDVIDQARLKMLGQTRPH
Tyrosine-protein kinase Fyn, sequence (P06241 whole entry): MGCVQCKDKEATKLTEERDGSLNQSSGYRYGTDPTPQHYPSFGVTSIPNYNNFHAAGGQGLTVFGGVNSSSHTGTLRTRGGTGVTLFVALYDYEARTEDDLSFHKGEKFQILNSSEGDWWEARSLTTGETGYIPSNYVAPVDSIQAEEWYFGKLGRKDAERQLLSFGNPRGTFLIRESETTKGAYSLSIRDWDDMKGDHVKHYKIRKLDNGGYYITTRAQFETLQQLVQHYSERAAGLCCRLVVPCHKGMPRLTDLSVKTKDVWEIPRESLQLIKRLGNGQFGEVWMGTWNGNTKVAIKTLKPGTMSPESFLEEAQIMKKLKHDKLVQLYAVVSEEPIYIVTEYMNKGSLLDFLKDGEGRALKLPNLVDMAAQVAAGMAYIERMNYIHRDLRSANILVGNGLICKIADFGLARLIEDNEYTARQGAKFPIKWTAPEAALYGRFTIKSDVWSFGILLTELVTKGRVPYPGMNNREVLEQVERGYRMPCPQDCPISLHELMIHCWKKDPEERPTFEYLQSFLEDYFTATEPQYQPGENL
Proto-oncogene tyrosine-protein kinase Src, sequence (P12931 2-536 limits assumed): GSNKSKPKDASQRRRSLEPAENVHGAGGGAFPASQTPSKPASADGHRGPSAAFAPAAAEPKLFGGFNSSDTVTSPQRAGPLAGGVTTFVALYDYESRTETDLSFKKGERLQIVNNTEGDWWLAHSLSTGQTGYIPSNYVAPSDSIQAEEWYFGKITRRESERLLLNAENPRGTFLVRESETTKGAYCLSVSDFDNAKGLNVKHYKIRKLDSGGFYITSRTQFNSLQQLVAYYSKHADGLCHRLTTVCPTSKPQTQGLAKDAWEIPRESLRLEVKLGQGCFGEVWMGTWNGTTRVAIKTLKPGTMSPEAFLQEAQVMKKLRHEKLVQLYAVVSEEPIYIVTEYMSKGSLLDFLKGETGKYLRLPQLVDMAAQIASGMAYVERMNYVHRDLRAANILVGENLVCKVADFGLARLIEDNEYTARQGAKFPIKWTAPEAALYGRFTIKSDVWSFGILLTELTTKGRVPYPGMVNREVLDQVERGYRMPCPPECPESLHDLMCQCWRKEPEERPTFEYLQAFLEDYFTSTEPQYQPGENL

| Compound | IC50 [1] [nM] | IC50 [2] [nM] | other results |
| --- | --- | --- | --- |
| Cc1cccc(Cl)c1NC(=O)c1sc(NC(=O)c2ccco2)nc1C | 710 | – | – |
| Cc1cccc(Cl)c1NC(=O)c1sc(NC(=O)C2CC2)nc1C | 1400 | – | – |
| Cc1cc(NC(=O)c2sc(NC(=O)OC(C)(C)C)nc2C)c(C)[nH]1 | – | > 50000 | – |
| Cc1ccccc1NC(=O)c1sc(NC(=O)OC(C)(C)C)nc1C | – | 45700 | – |
| Cc1cc(C)c(NC(=O)c2sc(NC(=O)OC(C)(C)C)nc2C(F)(F)F)c(C)c1 | > 30000 | – | – |
| COC(=O)Nc1nc(C)c(C(=O)Nc2c(C)cc(C)cc2C)s1 | 700 | 720 | – |
| Cc1nc(NC(=O)OC(C)(C)C)sc1C(=O)NCC(C)(C)C | – | > 50000 | – |
| Cc1cccc(C)c1NC(=O)c1sc(NC(=O)OC(C)(C)C)nc1C | – | – | IC50 [3]: 4400 nM; IC50 [4]: 7500 nM |
| Cc1nc(NC(=O)OC(C)(C)C)sc1C(=O)N1CCN(C=O)CC1 | – | > 50000 | – |
| CCCCNC(=O)Nc1nc(C)c(C(=O)Nc2c(C)cccc2Cl)s1 | 620 | – | – |
| Cc1cc(C)c(NC(=O)c2cnc(NC(=O)OC(C)(C)C)s2)c(C)c1 | > 30000 | – | – |
| Cc1cc(C)c(NC(=O)c2sc(NC(=O)c3ccccc3)nc2C)c(C)c1 | 800 | 320 | – |
| COc1cc(NC(=O)c2sc(NC(=O)OC(C)(C)C)nc2C)cc(C(F)(F)F)c1 | – | > 50000 | – |
| CCc1nc(NC(=O)OC(C)(C)C)sc1C(=O)Nc1c(C)cc(C)cc1C | > 30000 | – | – |
| Cc1nc(NC(=O)OC(C)(C)C)sc1C(=O)NC(C)C(C)C (centres undefined) | > 50000 | > 50000 | – |
| CCCCNC(=O)Nc1nc(C)c(C(=O)Nc2c(C)cc(C)cc2C)s1 | 30 | 70 | – |
| Cc1cc(C)c(NC(=O)c2sc(N(C)C(=O)OC(C)(C)C)nc2C)c(C)c1 | – | – | IC50 [5]: Not Active; IC50 [6]: Not Active |
| Cc1cccc(Cl)c1NC(=O)c1cnc(NC(=O)c2ccccc2)s1 | 890 | – | – |
| Cc1cccc(Cl)c1NC(=O)c1cnc(NC(=O)C2CC2)s1 | 35 | – | IC50 [7]: > 25000 nM; IC50 [8]: > 25000 nM; IC50 (Focal adhesion kinase 1): > 25000 nM; IC50 [9]: 71 nM; IC50 [10]: > 25000 nM; IC50 [11]: 310 nM; IC50 [12]: 44 nM; IC50 [13]: 10 nM; IC50 [14]: 35 nM |

| Compound | IC50 [1] [nM] | IC50 [2] [nM] | other results |
| --- | --- | --- | --- |
| Cc1cc(C)c(NC(=O)c2sc(NC(=O)c3ccco3)nc2C)c(C)c1 | 360 | – | – |
| COc1cccc(C)c1NC(=O)c1sc(NC(=O)OC(C)(C)C)nc1C | – | 24300 | – |
| Cc1nc(NC(=O)OC(C)(C)C)sc1C(=O)Nc1c(Cl)cccc1Cl | – | – | IC50 [15]: 12500 nM |
| Cc1cc(C)c(NC(=O)c2sc(N)nc2C)c(C)c1 | – | – | IC50 [3]: 5000 nM; IC50 [4]: 6600 nM |
| Cc1cccc(Cl)c1NC(=O)c1sc(NC(=O)OC(C)(C)C)nc1C | – | – | IC50 [3]: 28000 nM; IC50 [4]: 9600 nM |
| Cc1nc(NC(=O)OC(C)(C)C)sc1C(=O)Nc1c(C(C)C)cccc1C(C)C | – | > 50000 | – |
| Cc1cccc(C(C)C)c1NC(=O)c1sc(NC(=O)OC(C)(C)C)nc1C | – | 40300 | – |
| Cc1nc(NC(=O)OC(C)(C)C)sc1C(=O)Nc1ccc(Cl)cc1Cl | – | > 50000 | – |
| Cc1cccc(Cl)c1NC(=O)c1sc(NC(=O)c2ccccc2)nc1C | 4500 | – | – |
| CNC(=O)Nc1nc(C)c(C(=O)Nc2c(C)cc(C)cc2C)s1 | 240 | 170 | – |
| Cc1cccc(C(C)(C)C)c1NC(=O)c1sc(NC(=O)OC(C)(C)C)nc1C | – | > 50000 | – |
| Cc1cc(C)c(NC(=O)c2cnc(NC(=O)C3CC3)s2)c(C)c1 | 18 | – | – |
| Cc1cc(Br)cc(C)c1NC(=O)c1sc(NC(=O)OC(C)(C)C)nc1C | – | – | IC50 [3]: 1400 nM; IC50 [4]: 2400 nM |
| Cc1cc(C)c(NC(=O)c2sc(NC(=O)OC(C)(C)C)nc2-c2ccccc2)c(C)c1 | > 30000 | – | – |
| Cc1nc(NC(=O)OC(C)(C)C)sc1C(=O)NCC1CCCCC1 | – | > 50000 | – |
| Cc1nc(NC(=O)OC(C)(C)C)sc1C(=O)Nc1ccccc1[N+](=O)[O-] | – | > 50000 | – |
| Cc1nc(NC(=O)OC(C)(C)C)sc1C(=O)Nc1ccccc1 | – | > 50000 | – |
| Cc1cc(C)c(N(C)C(=O)c2sc(NC(=O)OC(C)(C)C)nc2C)c(C)c1 | – | – | IC50 [5]: Not Active; IC50 [6]: Not Active |
| Cc1cc(C)c(NC(=O)c2sc(NC(=O)OC(C)(C)C)nc2C)c(C)c1 | – | – | IC50 [3]: 1500 nM; IC50 [4]: 3000 nM |
